# Test results from patent US8258099B2, “Pin1-modulating compounds and methods of use thereof” (Max-Planck-Gesellschaft zur Foerderung der Wissenschaften …, priority 2004, dated 2012).
# Where two headings read alike, the source gives them in different places. Square brackets hold non-standard residues; d marks the D form. Peptide text beside a SMILES is read from it. * marks the point of attachment. Biotin = O=C1N[C@H]2[C@H](CS[C@H]2CCCCC(=O)*)N1; pT = C[C@@H](OP(=O)(O)O)[C@H](N)C(=O)O; 2Nal = N[C@@H](Cc1ccc2ccccc2c1)C(=O)O; Bta = N[C@@H](Cc1csc2ccccc12)C(=O)O; Pip = O=C(O)[C@@H]1CCCCN1
# Legend:
# hPin1 = target: T1, hPin1 (Homo sapiens, UniProt Q13526); assay: Protease free PPIase assay, hPin1; assay type: biochemical
# T1 construct: The protease free assay ensures reliable measurement of IC50 values for the full-length hPin1
# Description: Protein concentrations were determined using the extinction coefficient ε280=21030 M^−1 cm^−1 for hPin1, ε280=6979 M^−1 cm^−1 for the hPin1 PPIase domain, ε280=21030 M^−1 cm^−1 for XlPin1, ε280=8250 M^−1 cm^−1 for hPar14 and ε280=8250 M^−1 cm^−1 for hCyp18. Extinction coefficients were calculated using the program ProtParam Tool at ExPASy (SIB, Switzerland). All measurements were done at 10° C. in 35 mM Hepes buffer (pH 7.8).
# The determination of the kinetic constants of the cis/trans isomerization within the protease-free system was performed using fluorescence based measurements (Garcia-Echeverria et al., 1993, Zhang et al., 2002) on a Hitachi F-3010 fluorescence spectrophotometer with H-Abz-Ala-Glu-Pro-Phe-NH-Np (SEQ ID NO: 2) as substrate. The substrate stock solution was 12 mM in anhydrous trifluoroethanol/0.55 M LiCl. Measurements were initiated by addition of the substrate (final concentration 10 μM) to a pre-incubated (15 min) mixture of 8.8 nM hPin1 or 7.1 nM XlPin1 and respective inhibitory peptide of desired concentrations. The excitation wavelength was 320 nm (spectral bandwidth 3 nm) and emission was detected at 420 nm (spectral bandwidth 10 nm).
# Data analysis was performed by single-exponential nonlinear regression using the SigmaPlot Scientific Graphing System Version 5.00 (Jandel Corp.). The apparent first order rate constant kobs was computed by nonlinear regression of the progress curve obtained for the respective measurement. The rate constant k0 was determined in the absence of Pin1. The first order rate constants kenz was calculated from the equation kenz=kobs−k0. IC50 and Ki values were determined by fitting the first order rate constants kenz against the concentration of the inhibitory peptide by nonlinear regression according to Schutkowski et al., 1995 or a model for tight binding inhibitors (Morrison, 1969).
# The protease free assay ensures reliable measurement of IC50 values for the full-length hPin1.
# [1] = Stability against cellular phosphatases and proteases in HeLa cell lysate; assay type: in vitro ADME; settings: cytoplasmic extracts from HeLa cells, prolonged incubation, MALDI-TOF
# Description: FIG. 4 depicts the stability of peptide 17 against cellular phosphatases and proteases. Peptide 17 was incubated for 3 hours in HeLa cell lysate in the absence of phosphatase and protease inhibitors. The mixture was then analyzed by capillary electrophoresis (short dashed line). As controls, the untreated peptide 17 (solid line) and its nonphosphorylated derivative (dotted line) were used. The temperature of the capillary thermostating system was kept at 16° C. Separation buffer was 50 mM sodium phosphate, pH 7.0. Signals were detected at 220 nm.
# Peptide 17 was incubated with HeLa cell lysate for 3 h and analyzed with capillary electrophoresis using UV detection at 220 nm on a P/ACE MDQ (Beckman Coulter, Palo Alto, Calif.) system. Fused-silica capillaries (Polymicro Technologies) of 40 cm length at an operation voltage of 20 kV were used. As references, untreated peptide 17 and its nonphosphorylated derivative were used. The samples were hydrodynamically injected with 3.45 kPa for 10 s. 50 mM sodium phosphate buffer (pH 7.0) was used as separation buffer. The system temperature was kept at 16° C.
# The stability of peptides 15 and 17 in cytoplasmic extracts from HeLa cells was investigated using MALDI-TOF mass spectrometry and capillary electrophoresis, respectively. In the cytosolic incubation mixture, streptavidin sepharose beads served to isolate peptide 15 fragments after prolonged incubation. […] Therefore, phosphopeptides are useless for evaluating Pin1 functions in vivo unless dephosphorylation can be avoided.
# [2] = target: T2, GST-hPin1, GST-hPin1 PPIase and GST-hPin1 WW domain (Homo sapiens, UniProt Q13526); assay: Far western blot related analysis, hPin1 and its single domains; assay type: binding; settings: 1 μM peptide 15, 50 μM nonphosphorylated derivative
# T2 construct: made in house
# Description: (§1) FIGS. 2A-B depict western blot experiments analyzing the binding of peptide 15 to Pin1. FIG. 2A depicts the binding preferences of the PPIase and WW domain of hPin1 regarding peptide 15. In far western blot related experiments, increasing amounts (from left to right: 1, 5, 10, 52.5, 105 pmol) of GST, GST-hPin1 or its single GST-hPin1 PPIase and GST-hPin1 WW domain were spotted onto nitrocellulose membranes followed by a blocking procedure. The membranes were then incubated with a 1 μM solution of peptide 15 or 50 μM solution of its nonphosphorylated derivative (control). Signals were detected after incubation of the nitrocellulose membranes with horseradish peroxidase-conjugated streptavidin followed by a chemiluminescent reaction using the SuperSignal® substrate. FIG. 2B depicts an analysis of the binding of peptide 15 towards different GST-hPin1 variants. […] Residual PPIase activities of GST-hPin1 and its variants were determined according to Zhou et al., 2000 and/or Yaffe et al., 1997. The PPIase activity of the GST-hPin1 variant Ser16Glu was measured in the protease free PPIase assay.
# GST-hPin1 variants, GST-hPin1 PPIase and GST-hPin1 WW domain were prepared as described previously (Ranganathan et al., 1997, Zhou et al., 2000). […] Specific bound peptide 15 was detected by a chemiluminescent reaction using the SuperSignal® substrate (Pierce).
# [3] = target: T3, GST-hPin1 variant Ser16Glu (Homo sapiens, UniProt Q13526, S16E); assay: Far western blot related analysis, GST-hPin1 variants; assay type: binding
# T3 construct: made in house
# Description: as §1, with “variants. The indicated amounts of peptide 15 were spotted onto nitrocellulose membranes followed by a blocking procedure and incubation with the respective GST-hPin1 variant.” for “variants.”, “assay. […]” for “assay.”
compound,measurement,setting,value
"CC(=O)N[C@@H](CCCCNC(=O)CCCC[C@@H]1SC[C@@H]2NC(=O)N[C@@H]21)C(=O)N[C@@H](C)C(=O)N[C@@H](C)C(=O)N[C@@H](Cc1csc2ccccc12)C(=O)N[C@H](C(=O)N1CCCC[C@H]1C(=O)N[C@@H](Cc1ccc2ccccc2c1)C(=O)N[C@@H](CCC(N)=O)C(N)=O)[C@@H](C)OP(=O)(O)O [Peptide 15, Ac-Lys(N^ε-biotinoyl)-Ala-Ala-Bth-Thr(PO3H2)Pip-Nal-Gln-NH2] (Ac-K(Biotin)AA[Bta][pT][Pip][2Nal]Q-NH2)",IC50,"hPin1; blockade of PPIase activity of full-length hPin1, protease free assay, 10° C., read-out: IC50",210 nM
same,IC50,"hPin1; protease free assay, full-length hPin1, read-out: lowest IC50 value",~200 nM
same,phosphothreonine residue in cytosol,[1],completely dephosphorylated
same,sequence integrity in cytosol,[1],sequence integrity was maintained
same,binding to GST-hPin1 and its PPIase and WW domains,[2],binds only to the PPIase domain
same,effect of Ser16Glu substitution in hPin1 on affinity,[3],virtually no effect
